# Data reported in patent US20240317777A1, “NOVEL MACROCYCLIC AMINOPYRAZOLE COMPOUNDS AS CDK2 INHIBITORS” (Accutar Biotechnology Inc., priority 2023, published 2024).
# pIC50: −log10 of the molar value. Like-named read-outs stand apart in the source and are kept apart here.
# Key:
# [1] = biological target: CDK1-CYCLIN B (Homo sapiens, UniProt P06493); test: CDK protein kinase inhibition by ADP-Glo assay, CDK1-CYCLIN B; format: biochemical; settings: for pIC50: read-out: CDK1-CYCLINB, IC50; for CDK2 Fold selectivity, CDK1: CDK2 versus CDK1
# How it was run: (§1)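 In this assay, substrate phosphorylation by each CDK/cyclin pair is measured indirectly as ADP, read by ADP-Glo luminescence. The reaction uses 1000 μM ATP at 22° C in pH 7.5 buffer with 1% DMSO.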
# [2] = biological target: CDK2-CYCLIN E1 (Homo sapiens, UniProt P24941); test: CDK protein kinase inhibition by ADP-Glo assay, CDK2-CYCLIN E1; format: biochemical; settings: read-out: CDK2-CYCLINE, IC50
# How it was run: as §1
# [3] = biological target: CDK4-CYCLIN D1 (Homo sapiens, UniProt P11802); test: CDK protein kinase inhibition by ADP-Glo assay, CDK4-CYCLIN D1; format: biochemical; settings: for pIC50: read-out: CDK4-CYCLIND1, IC50; for CDK2 Fold selectivity, CDK4: CDK2 versus CDK4
# How it was run: as §1
# [4] = biological target: CDK6-CYCLIN D3 (Homo sapiens, UniProt Q00534); test: CDK protein kinase inhibition by ADP-Glo assay, CDK6-CYCLIN D3; format: biochemical; settings: for pIC50: read-out: CDK6-CYCLIND3, IC50; for CDK2 Fold selectivity, CDK6: CDK2 versus CDK6
# How it was run: as §1
# [5] = biological target: CDK9-CYCLIN T1 (Homo sapiens, UniProt P50750); test: CDK protein kinase inhibition by ADP-Glo assay, CDK9-CYCLIN T1; format: biochemical; settings: for CDK2 Fold selectivity, CDK9: CDK2 versus CDK9
# How it was run: as §1
# [6] = system: Phospho-Rb (Ser807/811) in OVCAR3 cells; test: Phospho-Rb expression inhibition in OVCAR3 cells quantified by In Cell Western; format: cell-based; settings: Homo sapiens, OVCAR-3, 24 hours, read-out: OVCAR-3 pRb IC50
# How it was run: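 In-cell western: after 24 h compound exposure at 37° C, fixed OVCAR3 cells co-stained for pRb Ser807/811 (800 nm channel) and total Rb (680 nm channel), imaged by LI-COR Odyssey.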
# [7] = system: CCNE1-amplified OVCAR3 cells; test: Cell growth inhibition of CCNE1-amplified OVCAR3 cells (CellTiter-Glo); format: cell-based; settings: Homo sapiens, OVCAR-3, 144 h, 6 days
# How it was run: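 Growth read-out was CellTiter-Glo luminescence, taken after 10 min at room temperature at the end of a 6-day compound exposure at 37 °C. Compounds were diluted from DMSO stocks across various concentrations.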
# [8] = system: CCNE1-normal SKOV3 cells; test: Cell growth inhibition of CCNE1-normal SKOV3 cells (CellTiter-Glo); format: cell-based; settings: Homo sapiens, SK-OV-3, 144 h, 6 days
# How it was run: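 Growth was measured by CellTiter-Glo luminescence after 6 days' compound exposure at 37 °C. Cells were plated one day before dosing at 1000 per well in medium with 10% FBS, and compounds were diluted from DMSO stocks.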
# [9] = ADP-Glo, 1000 μM ATP, Table 19, read-out: CDK9-CYCLINT1, IC50
# [10] = Table 35, recombinant CDK kinase
# CDK6-CYCLIN D3, sequence (Q00534 whole entry): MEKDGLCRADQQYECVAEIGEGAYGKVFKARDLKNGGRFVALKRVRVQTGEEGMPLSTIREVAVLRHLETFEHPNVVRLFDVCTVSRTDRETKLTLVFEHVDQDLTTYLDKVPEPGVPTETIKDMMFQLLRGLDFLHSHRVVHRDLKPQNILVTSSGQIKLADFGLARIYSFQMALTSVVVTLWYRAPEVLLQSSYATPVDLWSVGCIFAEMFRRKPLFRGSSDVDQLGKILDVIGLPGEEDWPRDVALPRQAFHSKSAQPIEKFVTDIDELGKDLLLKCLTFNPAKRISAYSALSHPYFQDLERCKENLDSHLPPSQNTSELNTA
# CDK6-CYCLIN D3, sequence (P30281 whole entry partner): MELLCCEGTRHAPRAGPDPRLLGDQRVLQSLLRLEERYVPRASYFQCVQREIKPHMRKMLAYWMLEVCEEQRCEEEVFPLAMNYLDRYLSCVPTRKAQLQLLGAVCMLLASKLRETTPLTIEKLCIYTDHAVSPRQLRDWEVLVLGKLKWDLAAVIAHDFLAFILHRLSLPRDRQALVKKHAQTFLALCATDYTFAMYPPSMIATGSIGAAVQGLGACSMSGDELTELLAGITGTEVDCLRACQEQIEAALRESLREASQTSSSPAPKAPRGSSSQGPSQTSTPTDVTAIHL
# CDK4-CYCLIN D1, sequence (P11802 whole entry): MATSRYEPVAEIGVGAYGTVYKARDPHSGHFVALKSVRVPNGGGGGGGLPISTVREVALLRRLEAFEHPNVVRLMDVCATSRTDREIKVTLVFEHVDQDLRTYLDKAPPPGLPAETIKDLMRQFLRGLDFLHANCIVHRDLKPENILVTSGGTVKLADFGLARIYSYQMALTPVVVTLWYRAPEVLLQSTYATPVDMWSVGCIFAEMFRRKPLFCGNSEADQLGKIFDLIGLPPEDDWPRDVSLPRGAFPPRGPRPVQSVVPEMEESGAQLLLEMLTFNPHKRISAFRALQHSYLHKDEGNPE
# CDK4-CYCLIN D1, sequence (P24385 whole entry partner): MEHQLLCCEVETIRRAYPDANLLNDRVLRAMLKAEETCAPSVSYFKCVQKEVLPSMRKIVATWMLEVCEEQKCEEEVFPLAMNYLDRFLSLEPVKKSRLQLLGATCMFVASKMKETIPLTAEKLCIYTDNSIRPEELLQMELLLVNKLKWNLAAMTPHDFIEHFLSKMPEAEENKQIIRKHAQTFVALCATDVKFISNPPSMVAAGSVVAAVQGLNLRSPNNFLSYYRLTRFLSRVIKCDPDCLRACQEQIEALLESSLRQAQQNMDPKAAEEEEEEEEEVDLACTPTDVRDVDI
# CDK9-CYCLIN T1, sequence (P50750 whole entry): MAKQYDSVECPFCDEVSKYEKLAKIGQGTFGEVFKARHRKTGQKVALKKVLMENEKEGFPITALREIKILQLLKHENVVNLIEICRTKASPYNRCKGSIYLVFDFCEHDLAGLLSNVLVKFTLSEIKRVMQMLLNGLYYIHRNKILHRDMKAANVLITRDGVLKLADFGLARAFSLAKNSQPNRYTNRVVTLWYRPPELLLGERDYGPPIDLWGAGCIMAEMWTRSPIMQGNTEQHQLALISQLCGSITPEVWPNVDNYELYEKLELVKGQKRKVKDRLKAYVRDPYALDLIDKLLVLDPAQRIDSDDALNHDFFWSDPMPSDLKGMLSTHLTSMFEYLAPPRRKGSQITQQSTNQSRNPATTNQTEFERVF
# CDK9-CYCLIN T1, sequence (O60563 whole entry partner): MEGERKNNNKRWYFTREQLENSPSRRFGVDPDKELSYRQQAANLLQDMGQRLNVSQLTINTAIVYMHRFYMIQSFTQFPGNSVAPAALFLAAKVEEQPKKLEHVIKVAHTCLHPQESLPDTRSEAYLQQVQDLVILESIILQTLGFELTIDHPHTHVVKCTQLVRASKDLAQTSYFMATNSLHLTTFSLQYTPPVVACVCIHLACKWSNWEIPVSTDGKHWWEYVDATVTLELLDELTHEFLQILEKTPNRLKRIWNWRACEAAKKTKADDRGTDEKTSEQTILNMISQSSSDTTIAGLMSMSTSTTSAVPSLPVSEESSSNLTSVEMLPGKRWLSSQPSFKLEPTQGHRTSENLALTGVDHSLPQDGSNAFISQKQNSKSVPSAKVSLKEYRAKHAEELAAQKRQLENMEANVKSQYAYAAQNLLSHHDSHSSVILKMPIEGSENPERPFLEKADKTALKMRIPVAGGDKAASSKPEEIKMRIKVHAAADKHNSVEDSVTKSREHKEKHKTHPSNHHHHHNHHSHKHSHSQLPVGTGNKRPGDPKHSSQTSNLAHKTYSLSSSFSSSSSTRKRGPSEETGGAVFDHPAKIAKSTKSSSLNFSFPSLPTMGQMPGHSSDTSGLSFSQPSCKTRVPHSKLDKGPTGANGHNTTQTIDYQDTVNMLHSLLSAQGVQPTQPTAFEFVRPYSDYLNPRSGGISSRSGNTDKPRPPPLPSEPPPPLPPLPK
# CDK1-CYCLIN B, sequence (P06493 whole entry): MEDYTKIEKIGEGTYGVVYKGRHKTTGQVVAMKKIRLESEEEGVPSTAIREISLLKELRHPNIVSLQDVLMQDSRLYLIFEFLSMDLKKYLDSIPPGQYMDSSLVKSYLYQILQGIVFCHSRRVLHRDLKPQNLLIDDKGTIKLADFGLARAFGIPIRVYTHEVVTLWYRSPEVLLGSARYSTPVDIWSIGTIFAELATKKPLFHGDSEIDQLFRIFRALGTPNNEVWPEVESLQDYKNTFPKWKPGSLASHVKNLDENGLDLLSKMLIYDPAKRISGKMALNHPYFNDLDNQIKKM
# CDK1-CYCLIN B, sequence (P14635 whole entry partner): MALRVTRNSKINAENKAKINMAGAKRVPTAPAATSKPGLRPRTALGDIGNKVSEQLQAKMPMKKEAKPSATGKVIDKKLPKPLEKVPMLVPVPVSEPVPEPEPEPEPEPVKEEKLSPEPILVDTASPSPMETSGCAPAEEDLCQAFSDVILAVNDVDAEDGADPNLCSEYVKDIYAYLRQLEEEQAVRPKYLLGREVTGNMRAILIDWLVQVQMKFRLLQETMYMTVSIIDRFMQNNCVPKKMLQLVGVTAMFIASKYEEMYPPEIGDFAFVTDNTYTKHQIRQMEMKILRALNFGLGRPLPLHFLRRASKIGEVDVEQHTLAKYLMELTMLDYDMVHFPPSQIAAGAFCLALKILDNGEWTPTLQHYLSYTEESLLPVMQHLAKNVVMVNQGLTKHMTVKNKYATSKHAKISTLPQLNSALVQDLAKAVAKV
compound,measurement,setting,value
O=C1N[C@H]2C[C@H](CCc3cc(ccn3)Nc3cc(n[nH]3)[C@H]3CC[C@H](C3)O1)C2 [compound 140],pIC50,"[1]; ADP-Glo, 1000 μM ATP, Table 19",7.30 to 8.00
same,pIC50,"[2]; ADP-Glo, 1000 μM ATP, Table 19",≥ 8.00
same,pIC50,"[3]; ADP-Glo, 1000 μM ATP, Table 19",7.30 to 8.00
same,pIC50,"[4]; ADP-Glo, 1000 μM ATP, Table 19",7.00 to 7.30
same,pIC50,[5]; [9],7.30 to 8.00
same,pIC50,[6],8.00 to 8.70
same,pIC50,[7],7.30 to 8.00
same,pIC50,[8],6.60 to 7.30
"C[C@@H]1CCCNC(=O)O[C@@H]2CC[C@@H](C2)c2cc([nH]n2)Nc2cncc(c2)O1 [Compound 121, (1^1S,1^3R,6R,Z)-6-methyl-2^1H-5,12-dioxa-3,10-diaza-4(3,5)-pyridina-2(3,5)-pyrazola-1(1,3)-cyclopentanacyclododecaphan-11-one]",pIC50,"[1]; ADP-Glo, 1000 μM ATP, Table 13",6.30 to 7.00
same,"CDK2 Fold selectivity, CDK1",[1]; Table 14,"D (D, >20 and ≤50)"
same,pIC50,"[2]; ADP-Glo, 1000 μM ATP, Table 13",≥ 8.00
same,pIC50,"[3]; ADP-Glo, 1000 μM ATP, Table 13",< 6.30
same,"CDK2 Fold selectivity, CDK4",[3]; Table 14,"B (B, >100 and ≤500)"
same,pIC50,"[4]; ADP-Glo, 1000 μM ATP, Table 13",6.30 to 7.00
same,"CDK2 Fold selectivity, CDK6",[4]; Table 14,"C (C, >50 and ≤100)"
same,pIC50,"[5]; ADP-Glo, 1000 μM ATP, Table 13, read-out: CDK9-CYCLINT1, IC50",6.30 to 7.00
same,"CDK2 Fold selectivity, CDK9",[5]; Table 14,"B (B, >100 and ≤500)"
same,pIC50,[6],7.30 to 8.00
same,pIC50,[7],6.60 to 7.30
same,pIC50,[8],< 5.90
C[C@H]1CCCNC(=O)O[C@@H]2CC[C@@H](C2)c2cc([nH]n2)Nc2ccnc(c2)O1 [compound 12],pIC50,"[1]; ADP-Glo, 1000 μM ATP, Table 11",7.30 to 8.00
same,pIC50,"[2]; ADP-Glo, 1000 μM ATP, Table 11",≥ 8.00
same,pIC50,"[3]; ADP-Glo, 1000 μM ATP, Table 11",6.30 to 7.00
same,pIC50,"[4]; ADP-Glo, 1000 μM ATP, Table 11",6.30 to 7.00
same,pIC50,"[5]; ADP-Glo, 1000 μM ATP, Table 11, read-out: CDK9-CYCLINT1, IC50",6.30 to 7.00
same,pIC50,[6],8.00 to 8.70
same,pIC50,[7],7.30 to 8.00
same,pIC50,[8],5.90 to 6.60
"C[C@H]1CCCCc2cc(ccn2)Nc2cc(n[nH]2)[C@H]2CC[C@H](C2)OC(=O)N1 [Compound 114, (1^1S,1^3R,9S,Z)-9-methyl-2^1H-12-oxa-3,10-diaza-4(4,2)-pyridina-2(3,5)-pyrazola-1(1,3)-cyclopentanacyclododecaphan-11-one]",pIC50,"[1]; ADP-Glo, 1000 μM ATP, Table 19",6.30 to 7.00
same,"CDK2 Fold selectivity, CDK1",[1]; Table 20,"E (E, <20)"
same,pIC50,"[2]; ADP-Glo, 1000 μM ATP, Table 19",≥ 8.00
same,pIC50,"[3]; ADP-Glo, 1000 μM ATP, Table 19",7.00 to 7.30
same,"CDK2 Fold selectivity, CDK4",[3]; Table 20,"E (E, <20)"
same,pIC50,"[4]; ADP-Glo, 1000 μM ATP, Table 19",6.30 to 7.00
same,"CDK2 Fold selectivity, CDK6",[4]; Table 20,"E (E, <20)"
same,pIC50,[5]; [9],6.30 to 7.00
same,"CDK2 Fold selectivity, CDK9",[5]; Table 20,"D (D, >20 and ≤50)"
same,pIC50,[6],7.30 to 8.00
same,pIC50,[7],7.30 to 8.00
same,pIC50,[8],5.90 to 6.60
"C[C@H]1CCCOc2cc(ccn2)Nc2cc(n[nH]2)[C@H]2C[C@@H](F)[C@H](C2)OC(=O)N1 [Compound 224, (1^1R,1^3S,1^4R,9S,Z)-1^4-fluoro-9-methyl-2^1H-5,12-dioxa-3,10-diaza-4(4,2)-pyridina-2(3,5)-pyrazola-1(1,3)-cyclopentanacyclododecaphan-11-one]",pIC50,[1]; [10],7.30 to 8.00
same,CDK2 Fold selectivity against CDK1,"[1]; Table 36, fold selectivity for CDK2 over CDK1, recombinant CDK kinases","E (E, <20)"
same,pIC50,[2]; [10],≥ 8.00
same,pIC50,[3]; [10],6.30 to 7.00
same,CDK2 Fold selectivity against CDK4,"[3]; Table 36, fold selectivity for CDK2 over CDK4, recombinant CDK kinases","C (C, >50 and ≤100)"
same,pIC50,[4]; [10],6.30 to 7.00
same,CDK2 Fold selectivity against CDK6,"[4]; Table 36, fold selectivity for CDK2 over CDK6, recombinant CDK kinases","C (C, >50 and ≤100)"
same,pIC50,"[5]; Table 35, recombinant CDK kinase, read-out: CDK9-CYCLINT1, IC50",< 6.30
same,CDK2 Fold selectivity against CDK9,"[5]; Table 36, fold selectivity for CDK2 over CDK9, recombinant CDK kinases","B (B, >100 and ≤500)"
same,pIC50,[6],8.00 to 8.70
same,pIC50,[7],7.30 to 8.00
same,pIC50,[8],< 5.90
"[2H]C1([2H])CC[C@H](C)NC(=O)O[C@@H]2CC[C@@H](C2)c2cc([nH]n2)Nc2ccnc(c2)O1 [Compound 173, (1^1S,1^3R,9S,Z)-9-methyl-2^1H-5,12-dioxa-3,10-diaza-4(4,2)-pyridina-2(3,5)-pyrazola-1(1,3)-cyclopentanacyclododecaphan-11-one-6,6-d2]",pIC50,"[1]; ADP-Glo, 1000 μM ATP, Table 27",6.30 to 7.00
same,"CDK2 Fold selectivity, CDK1",[1]; Table 28,"E (E, <20)"
same,pIC50,"[2]; ADP-Glo, 1000 μM ATP, Table 27",7.30 to 8.00
same,pIC50,"[3]; ADP-Glo, 1000 μM ATP, Table 27",6.30 to 7.00
same,"CDK2 Fold selectivity, CDK4",[3]; Table 28,"D (D, >20 and ≤50)"
same,pIC50,"[4]; ADP-Glo, 1000 μM ATP, Table 27",< 6.30
same,"CDK2 Fold selectivity, CDK6",[4]; Table 28,"D (D, >20 and ≤50)"
same,pIC50,"[5]; ADP-Glo, 1000 μM ATP, Table 27, read-out: CDK9-CYCLINT1 IC50",< 6.30
same,"CDK2 Fold selectivity, CDK9",[5]; Table 28,"D (D, >20 and ≤50)"
same,pIC50,[6],7.30 to 8.00
same,pIC50,[7],6.60 to 7.30
same,pIC50,[8],< 5.90
